Laboratory results reported in patent US20180044734A1, “COMPOSITION FOR DIAGNOSING SKIN DAMAGE CAUSED BY FINE DUST, AND COMPOSITION COMPRISING GALANGIN AS ACTIVE INGREDIENT” (AMOREPACIFIC CORPORATION, priority 2015, published 2018).

Experiments:
[1] = tested on: normal human keratinocytes; test: Differentiation of keratinocytes under optical microscope; format: cell-based; conditions: cells not treated with microdust; galangin 0, 1, 2 μM, 24 hours
Description: The normal human keratinocytes cultured in Example 2 were treated with galangin at different concentrations (0 μM, 1 μM and 2 μM). 24 hours later, the culture medium was removed and the degree of differentiation of the keratinocytes was observed under an optical microscope (Olympus IX71, x40 and x200).

[2] = tested on: filaggrin protein; test: Filaggrin protein expression by blotting with filaggrin antibody; format: cell-based, human; conditions: galangin 0, 0.5, 1, 2 μM, 24 hours; normalized to β-actin
Description: The normal human keratinocytes cultured in Example 2 were treated with galangin at different concentrations (0 μM, 0.5 μM, 1 μM and 2 μM). 24 hours later, the culture medium was removed and the cells were washed with 2 mL of phosphate-buffered saline (PBS). After adding cell lysis buffer and vortexing, proteins were quantified from the obtained supernatant. The proteins obtained from the epidermis of normal skin and dry skin were loaded on SDS gel and then blotted using the filaggrin antibody (Covance, France). The quantification result was normalized to that of β-actin (Sigma, USA).

[3] = tested on: microdust-treated normal human keratinocytes; test: Real-time RT-PCR of microdust-responsive genes in microdust-treated keratinocytes treated with galangin; format: cell-based; conditions: microdust 2.5 μm 12.5 μg in 1 mL, galangin 0.25-2 μM, 24 hours
Description: The normal human keratinocytes cultured in Example 2 were treated 12.5 μg of the microdust with a particle diameter of 2.5 μm extracted in Example 1 in 1 mL of a cell culture medium and relative mRNA expression level was measured using the primers described in Tables 5 and 6 (TaqMan® primers, Applied Biosystems).
The microdust-treated normal human keratinocytes or the normal human keratinocytes cultured in Example 2 but not treated with microdust were treated with galangin at different concentrations (0.25 μM, 0.5 μM, 1 μM and 2 μM). 24 hours later, the culture medium was removed and the cells were washed with 2 mL of phosphate-buffered saline (PBS). Then, RNA was isolated from the cells using TRIzol reagent (Invitrogen, Carlsbad, Calif., USA). For S100A8, S100A9, CYP1A1, CYP1B1, PI3, IL36G, IL1B, CCL27, IL8, NOX6, XDH, CXCL14, H19, CASP14 and CASP8, expression level was measured after treating with 0.25 μM galangin. The galangin was purchased commercially from Nanjing Chemlin Chemical (CAS No. 548-83-4). The isolated RNA was purified once again with Qiagen RNA kit Qiagen, Valencia, Calif.) and the quality of RNA was determined using Agilent 2100 BioAnalyzer (Agilent Technologies, Santa Clara, Calif., USA). cDNA synthesized from the RNA using SuperScript reverse transcriptase (RT) kit (Invitrogen, Carlsbad, Calif.) was quantitatively analyzed by real time-reverse transcription polymerase chain reaction (Q-RT-PCR) using the primers described in Tables 5 and 6. The change in gene expression pattern was evaluated in real time using TaqMan gene expression assay kit (Applied Biosystems, Foster City, Calif.). The Q-RT-PCR and real-time PCR were conducted in accordance with the standard protocols of Life Technologies, specifically, 95° C. for 20 seconds followed by 40 cycles of 95° C. for 3 seconds and 60° C. for 30 seconds.

[4] = tested on: filaggrin, keratin 10, keratin 1, keratin 13 and keratin 15 mRNA in normal human keratinocytes; test: Real-time PCR of gene expression in normal keratinocytes upon treatment with galangin; format: cell-based; conditions: cells not treated with microdust; galangin 0, 0.5, 1, 2 μM, 24 hours
Description: After treating the normal human keratinocytes cultured in Example 2 with galangin at different concentrations (0 μM, 0.5 μM, 1 μM and 2 μM), the relative mRNA expression level of filaggrin, keratin 10, keratin 1, keratin 13 and keratin 15 was measured.
24 hours after the treatment with galangin, the culture medium was removed and the cells were washed with 2 mL of phosphate-buffered saline (PBS). Then, RNA was isolated from the cells using TRIzol reagent (Invitrogen, Carlsbad, Calif., USA).
Subsequently, the change in gene expression was evaluated by real-time PCR in the same manner as in Example 5. For filaggrin, TaqMan® Hs00856927_g1 was used as the primer.

SMILES: O=c1c(O)c(-c2ccccc2)oc2cc(O)cc(O)c12 [galangin]
- degree of differentiation of the keratinocytes [1]: active differentiation with increasing galangin concentration
- expression of filaggrin protein [2]: increased with increasing galangin concentration
- expression of genes whose expression is increased in skin cells stimulated by microdust ([3]; FIGS. 2a-2k): decreased expression
- expression of genes increased or decreased in skin cells stimulated by microdust ([3]; FIGS. 2 and 3): returned to the normal level
- expression of genes whose expression is decreased in skin cells stimulated by microdust ([3]; FIGS. 3a-3k): increased expression
- relative mRNA expression level of filaggrin [4]: increased expression with increasing galangin concentration
- relative mRNA expression level of keratin 1 [4]: increased expression with increasing galangin concentration
- relative mRNA expression level of keratin 10 [4]: increased expression with increasing galangin concentration
- relative mRNA expression level of keratin 13 [4]: increased expression with increasing galangin concentration
- relative mRNA expression level of keratin 15 [4]: increased expression with increasing galangin concentration
